Measured values reported in US20250313569A1, “Pharmaceutical Compounds And Compositions As Modulators Of MAS-Related G-Protein Receptor X2” (Enanta Pharmaceuticals, Inc., priority 2024, published 2025).
pEC50: −log10 of the molar value.

Experiments:
human MRGPRX2 = molecular target: T1, human MRGPRX2 (Homo sapiens, UniProt Q96LB1); experiment: MRGPRX2 IP-1 Gq HTRF assay in HEK293 cells stably expressing human MRGPRX2, Cortistatin-14 at EC75; assay type: cell-based; conditions: 2 hours at 37° C., cellular IP-1
T1 construct: expressed in transfected cells; host or cells: HEK293
T1 sequence (Q96LB1 1-330): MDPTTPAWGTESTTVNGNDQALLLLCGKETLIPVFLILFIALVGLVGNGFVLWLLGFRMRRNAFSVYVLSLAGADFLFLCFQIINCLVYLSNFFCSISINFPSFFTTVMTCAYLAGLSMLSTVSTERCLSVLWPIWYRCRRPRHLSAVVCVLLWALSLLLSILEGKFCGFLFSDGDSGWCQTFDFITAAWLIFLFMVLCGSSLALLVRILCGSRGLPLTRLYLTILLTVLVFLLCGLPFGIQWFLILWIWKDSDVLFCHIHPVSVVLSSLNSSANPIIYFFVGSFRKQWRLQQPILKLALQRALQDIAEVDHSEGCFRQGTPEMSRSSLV
Procedure: HEK293 cells stably expressing human MRGPRX2 were grown in Dulbecco's Modified Eagle Medium (DMEM) supplemented with 10% fetal bovine serum (FBS), 1% Glutamax, and 1 μg/mL of puromycin. Cells were maintained in a 37° C., 5% CO2 humidified incubator.
Cells were plated in a 384-well assay plate at a density of 20,000 cells per well overnight. Compounds were solubilized at 10 mM in DMSO and added as a 10-point curve using an ECHO acoustic liquid handler. On the day of the assay, Cortistatin-14 was diluted in assay buffer (provided by IP-One-Gq-HTRF kit purchased from Cisbio, 62IPAPEJ) and added to the assay plate at a final concentration corresponding to the predetermined EC75. Plates were incubated at 37° C. for 2 hours prior to addition of HTRF detection reagents per the manufacturer's instructions. The plates were read on a Perkin Elmer Envision plate reader. The HTRF ratio and cellular IP-1 levels were calculated. XLfit was used to calculate an EC50 value for each compound using a 4-parameter logistic curve fitting model. EC50 ranges are reported as follows: A<100 nM; B 0.1-1 μM; C>1 μM.

MRGPRX2 LAD2 = molecular target: T2, MRGPRX2 LAD2 (Homo sapiens, UniProt Q96LB1); experiment: LAD2 β-hexosaminidase release assay (degranulation), Cortistatin-14 at EC75; assay type: cell-based; conditions: LAD2 cells; 1 hour compound incubation, Cortistatin-14 at EC75 for 30 minutes; percent degranulation (β-hexosaminidase)
T2 construct: host or cells: LAD2 human mast cells
T2 sequence (Q96LB1 1-330): T1 sequence (Q96LB1 1-330)

SMILES | pEC50 (human MRGPRX2) | pEC50 (MRGPRX2 LAD2)
CC(=O)N1C[C@@H](NC(=O)c2cccc(C(C)(C)O)c2)C[C@@H](Nc2cc(C(F)(F)F)nc3ccc(Cl)cc23)C1 [Example 41] | 6.00 to 7.00 | > 7.00
CC(=O)N1C[C@@H](NC(=O)c2cccc(C(F)F)c2)C[C@@H](Nc2cc(C(F)(F)F)nc3ccc(Cl)cc23)C1 [Example 42] | > 7.00 | > 7.00
CC(=O)N1C[C@@H](NC(=O)c2cccc(NS(=O)(=O)C(F)(F)F)c2)C[C@@H](Nc2cc(C(F)(F)F)nc3ccc(Cl)cc23)C1 [Example 43] | 6.00 to 7.00 | > 7.00
